Reference: patent publication US11504396B2 (NKMAX Co., Ltd., priority 2016, dated 2022)
Read-outs that look alike come from different tables or passages of the source. The star is where a group is joined. Cbz = O=C(OCc1ccccc1)*; CH2F = FC*

How the values were obtained:
[1] = tested on: HCT-15 (colon cancer) cells; assay: Cytotoxicity of NK cells after TGF-β receptor inhibitor treatment (HCT-15); format: cell-based; conditions: NK cells treated with LY2157299 100 nM for 24 hours, co-cultured 48 hours
Procedure: (§1) NK cells are treated with LY2157299 (100 nM), a compound inhibiting kinases related to TGF-β receptor signaling, for 24 hours and then co-cultured with SK-4 (stomach cancer) or HCT-15 (colon cancer) cells for 48 hours.

[2] = tested on: TGF-β-induced NK cell death; assay: NK cell survival after TGF-β treatment (trypan blue); format: cell-based, human; conditions: FIG. 1E; LY2157299 100 nM pretreatment 24 hours, then 1 ng/mL TGF-β for two days
[3] = tested on: SK-4 (stomach cancer) cells; assay: Cytotoxicity of NK cells after TGF-β receptor inhibitor treatment (SK-4); format: cell-based; conditions: NK cells treated with LY2157299 100 nM for 24 hours, co-cultured 48 hours
Procedure: as §1

[4] = tested on: sGITRL-induced NK cell death; assay: NK cell survival after sGITRL treatment (trypan blue); format: cell-based, human; conditions: then 5 ng/mL sGITRL for two days
[5] = tested on: SNU-387 (the liver cancer cell line); assay: 2 day cytotoxicity assay of kinase inhibitor pretreated NK cells against SNU-387
[6] = tested on: SNU-245 (the biliary tract cancer cell line); assay: 2 day cytotoxicity assay against SNU-245 cells (pretreated or formulated NK cells, or ponatinib alone)
[7] = tested on: MDA-MB-231 (the breast cancer cell line); conditions: FIG. 6B; pretreatment 24 hrs (30, 100 and 300 μM); E:T 0.5:1, 48 hrs
[8] = tested on: AGS (the stomach cancer cell line); conditions: FIG. 6A; pretreatment 24 hrs (30, 100 and 300 μM); E:T 0.5:1, 48 hrs
human NK cells = conditions: cited from earlier work; for NK cytotoxicity / NK cytokine production: direct exposure of human NK cells with pharmacological doses, in vitro (Krieg and Ullrich 2013)
[9] = tested on: NCI-H1299 (lung cancer) cells; assay: Cytotoxicity of NK cells after caspase-8 inhibitor treatment (NCI-H1299); format: cell-based; conditions: NK cells treated with Z-IETD-FMK 2 μM for 24 hours, co-cultured 48 hours
Procedure: (§2) NK cells are treated with Z-IETD-FMK (2 μM), an inhibitory peptide against apoptosis-related activity of Caspase-8, for 24 hours and then co-cultured with NCI-H1299 (lung cancer) or PC-3 (prostate cancer) cells for 48 hours.

[10] = tested on: Fas-L-induced NK cell death; assay: NK cell survival after Fas-L treatment (trypan blue); format: cell-based, human; conditions: FIG. 1D; Z-IETD-FMK 2 μM pretreatment 24 hours, then 5 ng/mL Fas-L for two days
[11] = tested on: PC-3 (prostate cancer) cells; assay: Cytotoxicity of NK cells after caspase-8 inhibitor treatment (PC-3); format: cell-based; conditions: NK cells treated with Z-IETD-FMK 2 μM for 24 hours, co-cultured 48 hours
Procedure: as §2

[12] = FIG. 7B, pretreatment 24 hrs, E:T 0.5:1, 48 hrs
[13] = FIG. 7A, pretreatment 24 hrs, E:T 0.5:1, 48 hrs
[14] = resting and IL-2-activated NK cells (Krusch et al. 2009)

Cc1cccc(-c2nn3c(c2-c2ccnc4ccc(C(N)=O)cc24)CCC3)n1 [LY2157299]
Cytotoxicity of NK Cells to HCT-15 Cells ([1]; E:T = 0.1:1, W/ IL-2): 86%
Cytotoxicity of NK Cells to HCT-15 Cells ([1]; E:T = 0.1:1, W/O IL-2): 68%
Cytotoxicity of NK Cells to HCT-15 Cells ([1]; E:T = 05:1, W/ IL-2): 98%
Cytotoxicity of NK Cells to HCT-15 Cells ([1]; E:T = 05:1, W/O IL-2): 82%
cell death induced by TGF-β (NK cell survival rate) [2]: suppressed cell death
Cytotoxicity of NK Cells to SK-4 Cells ([3]; E:T = 0.1:1, With IL-2): 39%
Cytotoxicity of NK Cells to SK-4 Cells ([3]; E:T = 0.1:1, Without IL-2): 27%
Cytotoxicity of NK Cells to SK-4 Cells ([3]; E:T = 05:1, With IL-2): 59%
Cytotoxicity of NK Cells to SK-4 Cells ([3]; E:T = 05:1, Without IL-2): 35%
cell death induced by sGITRL (NK cell survival rate) ([4]; FIG. 1E, LY2157299 100 nM pretreatment 24 hours): suppressed cell death

COc1cc(Nc2c(C#N)cnc3cc(OCCCN4CCN(C)CC4)c(OC)cc23)c(Cl)cc1Cl [bosutinib]
anti-cancer cytotoxicity of kinase inhibitor pretreated NK cells against SNU-387 vs untreated NK cells [5, 12]: did not increase
anti-cancer cytotoxicity of kinase inhibitor pretreated NK cells against SNU-245 vs untreated NK cells [6, 13]: did not increase

Cc1nc(Nc2ncc(C(=O)Nc3c(C)cccc3Cl)s2)cc(N2CCN(CCO)CC2)n1 [dasatinib]
anti-cancer cytotoxicity of kinase inhibitor pretreated NK cells against MDA-MB-231 vs untreated NK cells [7]: did not show any differences
anti-cancer cytotoxicity of kinase inhibitor pretreated NK cells against SNU-387 vs untreated NK cells [5, 12]: did not increase
anti-cancer cytotoxicity of kinase inhibitor pretreated NK cells against AGS vs untreated NK cells [8]: did not show any differences
anti-cancer cytotoxicity of kinase inhibitor pretreated NK cells against SNU-245 vs untreated NK cells [6, 13]: slightly increased anticancer activity
NK cytotoxicity (human NK cells): abrogated cytotoxicity

Cc1ccc(NC(=O)c2ccc(CN3CCN(C)CC3)cc2)cc1Nc1nccc(-c2cccnc2)n1 [imatinib]
anti-cancer cytotoxicity of kinase inhibitor pretreated NK cells against MDA-MB-231 vs untreated NK cells [7]: did not show any differences
anti-cancer cytotoxicity of kinase inhibitor pretreated NK cells against SNU-387 vs untreated NK cells [5, 12]: did not increase
anti-cancer cytotoxicity of kinase inhibitor pretreated NK cells against AGS vs untreated NK cells [8]: did not show any differences
anti-cancer cytotoxicity of kinase inhibitor pretreated NK cells against SNU-245 vs untreated NK cells [6, 13]: did not increase
NK cytokine production (human NK cells): no impact
NK cytotoxicity (human NK cells): no impact

Cc1cn(-c2cc(NC(=O)c3ccc(C)c(Nc4nccc(-c5cccnc5)n4)c3)cc(C(F)(F)F)c2)cn1 [nilotinib]
anti-cancer cytotoxicity of kinase inhibitor pretreated NK cells against MDA-MB-231 vs untreated NK cells [7]: did not show any differences
anti-cancer cytotoxicity of kinase inhibitor pretreated NK cells against SNU-387 vs untreated NK cells [5, 12]: did not increase
anti-cancer cytotoxicity of kinase inhibitor pretreated NK cells against AGS vs untreated NK cells [8]: did not show any differences
anti-cancer cytotoxicity of kinase inhibitor pretreated NK cells against SNU-245 vs untreated NK cells [6, 13]: did not increase
NK cytokine production (human NK cells): negatively influenced

CNC(=O)c1cc(Oc2ccc(NC(=O)Nc3ccc(Cl)c(C(F)(F)F)c3)cc2)ccn1 [sorafenib]
anti-cancer cytotoxicity of kinase inhibitor pretreated NK cells against MDA-MB-231 vs untreated NK cells [7]: did not show any differences
anti-cancer cytotoxicity of kinase inhibitor pretreated NK cells against SNU-387 vs untreated NK cells [5, 12]: did not increase
anti-cancer cytotoxicity of kinase inhibitor pretreated NK cells against AGS vs untreated NK cells [8]: did not show any differences
anti-cancer cytotoxicity of kinase inhibitor pretreated NK cells against SNU-245 vs untreated NK cells [6, 13]: did not increase
IFN-γ production of NK cells in response to tumor targets (human NK cells; [14]): concentration dependently inhibited
cytotoxicity of NK cells in response to tumor targets (human NK cells; [14]): concentration dependently inhibited

CCN(CC)CCNC(=O)c1c(C)[nH]c(/C=C2\C(=O)Nc3ccc(F)cc32)c1C [sunitinib]
anti-cancer cytotoxicity of kinase inhibitor pretreated NK cells against MDA-MB-231 vs untreated NK cells [7]: did not show any differences
anti-cancer cytotoxicity of kinase inhibitor pretreated NK cells against SNU-387 vs untreated NK cells [5]: did not increase
anti-cancer cytotoxicity of kinase inhibitor pretreated NK cells against AGS vs untreated NK cells [8]: did not show any differences
anti-cancer cytotoxicity of kinase inhibitor pretreated NK cells against SNU-245 vs untreated NK cells [6]: did not increase
cytotoxicity of NK cells in response to tumor targets (human NK cells): concentration dependently inhibited

COc1cc2c(Nc3ccc(Br)cc3F)ncnc2cc1OCC1CCN(C)CC1 [vandetanib]
anti-cancer cytotoxicity of kinase inhibitor pretreated NK cells against SNU-387 vs untreated NK cells [5, 12]: did not increase
anti-cancer cytotoxicity of kinase inhibitor pretreated NK cells against SNU-245 vs untreated NK cells [6, 13]: did not increase

Cbz-IETD-CH2F
Cytotoxicity of NK Cells to NCI-H1299 Cells ([9]; E:T = 0.1:1, With IL-2): 33%
Cytotoxicity of NK Cells to NCI-H1299 Cells ([9]; E:T = 0.1:1, Without IL-2): 25%
Cytotoxicity of NK Cells to NCI-H1299 Cells ([9]; E:T = 0.5:1, With IL-2): 58%
Cytotoxicity of NK Cells to NCI-H1299 Cells ([9]; E:T = 0.5:1, Without IL-2): 34%
cell death induced by Fas-L (NK cell survival rate) [10]: suppressed cell death
Cytotoxicity of NK Cells to PC-3 Cells ([11]; E:T = 0.1:1, W/ IL-2): 76%
Cytotoxicity of NK Cells to PC-3 Cells ([11]; E:T = 0.1:1, W/O IL-2): 48%
Cytotoxicity of NK Cells to PC-3 Cells ([11]; E:T = 0.5:1, W/ IL-2): 96%
Cytotoxicity of NK Cells to PC-3 Cells ([11]; E:T = 0.5:1, W/O IL-2): 78%
cell death induced by sGITRL (NK cell survival rate) ([4]; FIG. 1D, Z-IETD-FMK 2 μM pretreatment 24 hours): suppressed cell death
